Key:
[1] = Stability of LM030 formulations stored at 50° C. for 7 days; type: physicochemical; conditions: summary of Table 7
[2] = General solubility and stability properties of LM030; type: physicochemical
Source text: Difficulties in formulating LM030 for topical administration are described in U.S. Pat. No. 8,680,054. In particular, the solubility and stability properties of LM030 create challenges in developing a topical formulation with adequate storage stability that is also able to provide an effective amount of active agent available for skin penetration [See col 4, lines 16-23].

CC[C@H](C)[C@@H]1NC(=O)[C@H](Cc2ccc(O)cc2)N(C)C(=O)[C@H]([C@@H](C)CC)N2C(=O)[C@H](CC[C@H]2O)NC(=O)[C@H](CC(C)C)NC(=O)[C@@H](NC(=O)[C@H](CCC(N)=O)NC(=O)C(C)C)[C@@H](C)OC1=O [LM030]
stability in the presence of aqueous solutions [1]: poor stability | solubility in lipophilic excipients [2]: low | solubility in polar organic solvents [2]: good | solubility in water and aqueous buffers [2]: moderate | stability in polar organic solvents [2]: poor
